Assay results reported in ChEMBL document CHEMBL1201862, “PubChem BioAssay data set” (2004).
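In this assay, cells in 96-well plates receive the compound at five concentrations for 48 hours. Endpoints are linearly interpolated between the surrounding concentrations. Here, GI50 denotes the concentration required for 50% inhibition of growth.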 Activity calls are given as the source filed them. Cut-off read from the data, not from the text of the source: active = GI50 up to about 1.1 µM and inactive = higher.

How the values were obtained:
Test in all cases: NCI-60 cell line screen, 48 h
HL-60 = system: HL-60
CCRF-CEM = system: CCRF-CEM
UACC-257 = system: UACC-257
SNB-19 = system: SNB-19
CAKI-1 = system: CAKI-1
COLO 205 = system: COLO 205
K562 = system: K562
IGROV-1 = system: IGROV-1
SN12C = system: SN12C
LOX IMVI = system: LOX IMVI
RPMI-8226 = system: RPMI-8226
HCT-15 = system: HCT-15
DU-145 = system: DU-145
NCI-H226 = system: NCI-H226
RXF 393 = system: RXF 393
TK-10 = system: TK-10
HOP-92 = system: HOP-92
SK-MEL-2 = system: SK-MEL-2
Hs-578T = system: Hs-578T

Row | Compound | GI50 (HL-60) | GI50 (CCRF-CEM) | GI50 (UACC-257) | GI50 (SNB-19) | GI50 (CAKI-1) | GI50 (COLO 205) | GI50 (K562) | GI50 (IGROV-1) | GI50 (SN12C) | GI50 (LOX IMVI) | GI50 (RPMI-8226) | GI50 (HCT-15) | GI50 (DU-145) | GI50 (NCI-H226) | GI50 (RXF 393) | GI50 (TK-10) | GI50 (HOP-92) | GI50 (SK-MEL-2) | GI50 (Hs-578T)
1 | O=c1c(Cl)nsnc1Cl | 0.787 µM (active) | 0.984 µM (active) | 10.4 µM (inactive) | 23.4 µM (inactive) | 4.26 µM (inactive) | 1.83 µM (inactive) | 1.73 µM (inactive) | 16.4 µM (inactive) | 20.2 µM (inactive) | 9.23 µM (inactive) | 1.54 µM (inactive) | 17.5 µM | 17.3 µM (inactive) | 22.9 µM (inactive) | 12.1 µM (inactive) | 2.57 µM (inactive) | 0.665 µM (active) | 36.4 µM (inactive) | 30.2 µM (inactive)
2 | CC(C)N(CC(=O)O)CC(=O)O | > 100 µM (inactive) | > 100 µM (inactive) | > 100 µM (inactive) | > 100 µM (inactive) | > 100 µM (inactive) | > 100 µM (inactive) | > 100 µM (inactive) | > 100 µM (inactive) | > 100 µM (inactive) | > 100 µM (inactive) | > 100 µM (inactive) | > 100 µM | > 100 µM (inactive) | > 100 µM (inactive) | > 100 µM (inactive) | > 100 µM (inactive) | > 100 µM (inactive) | > 100 µM (inactive) | > 100 µM (inactive)
3 | COc1ccc(C(=O)/C=C/c2cc(O)c(O)cc2F)c(OC)c1 | 1.15 µM (inactive) | 0.783 µM (active) | 10.5 µM (inactive) | 9.79 µM (inactive) | 9.04 µM (inactive) | 15.8 µM (inactive) | 1.16 µM (inactive) | 7.96 µM (inactive) | 3.94 µM (inactive) | 10.6 µM (inactive) | 3.34 µM (inactive) | 0.448 µM | 6.19 µM (inactive) | 13.2 µM (inactive) | 9.68 µM (inactive) | 15.1 µM (inactive) | 50.1 µM (inactive) | 4.91 µM (inactive) | 4.8 µM (inactive)
4 | O=c1oc2ccccc2c2nc3ccccc3cc12 | > 100 µM (inactive) | > 100 µM (inactive) | 96.6 µM (inactive) | 23.3 µM (inactive) | 33.8 µM (inactive) | > 100 µM (inactive) | > 100 µM (inactive) | 35 µM (inactive) | 99.1 µM (inactive) |  | > 100 µM (inactive) | > 100 µM | > 100 µM (inactive) | 37.4 µM (inactive) | 29.2 µM (inactive) | 58.7 µM (inactive) | 31.3 µM (inactive) | > 100 µM (inactive) | 25.9 µM (inactive)
5 | COC(=O)c1ccc(C)cc1CC1Cc2c(C)cccc2C1=O (stereo not drawn) | 4.54 µM (inactive) | 7.05 µM (inactive) | 10.4 µM (inactive) | 9.89 µM (inactive) | 6.4 µM (inactive) | 5.69 µM (inactive) | 2.94 µM (inactive) | 5.62 µM (inactive) | 6.62 µM (inactive) | 8.09 µM (inactive) | 4.65 µM (inactive) | 3.05 µM | 29.4 µM (inactive) | 13.7 µM (inactive) | 10.9 µM (inactive) | 11.5 µM (inactive) | 16.9 µM (inactive) | 5.9 µM (inactive) | 8.55 µM (inactive)
6 | Cc1cc([C@H](C#N)c2nc3ccccc3s2)nc(Cl)n1 | 3.67 µM (inactive) | 3.82 µM (inactive) | 5.41 µM (inactive) | 6.7 µM (inactive) | 4.51 µM (inactive) | 2.4 µM (inactive) | 2.75 µM (inactive) | 3.52 µM (inactive) | 3.42 µM (inactive) | 2.89 µM (inactive) | 2.3 µM (inactive) | 3.66 µM | 23.7 µM (inactive) | 3.46 µM (inactive) | 7.4 µM (inactive) | 4.98 µM (inactive) | 2.32 µM (inactive) | 4.72 µM (inactive) | 4.71 µM (inactive)
7 | CC(C)=CCN1CC(C)C(=O)Nc2ccccc21 (stereo not drawn) | > 100 µM (inactive) | > 100 µM (inactive) | 44.7 µM (inactive) | > 100 µM (inactive) | > 100 µM (inactive) | > 100 µM (inactive) | > 100 µM (inactive) | > 100 µM (inactive) | > 100 µM (inactive) | > 100 µM (inactive) | > 100 µM (inactive) | > 100 µM | > 100 µM (inactive) | 65.2 µM (inactive) | > 100 µM (inactive) | > 100 µM (inactive) | 49 µM (inactive) | > 100 µM (inactive) | > 100 µM (inactive)
8 | COC(=O)C(=O)C(C(=O)C(=O)Nc1ccc([N+](=O)[O-])cc1[N+](=O)[O-])c1nc2ccc(Cl)cc2nc1O (stereo not drawn) | > 100 µM (inactive) | > 10 µM (inactive) | > 100 µM (inactive) | > 100 µM (inactive) | 17.5 µM (inactive) | > 100 µM (inactive) | > 100 µM (inactive) |  | > 100 µM (inactive) | > 100 µM (inactive) | > 100 µM (inactive) | > 100 µM | > 100 µM (inactive) | 78.5 µM (inactive) | 65.3 µM (inactive) |  | > 100 µM (inactive) | > 100 µM (inactive) | 25.1 µM (inactive)
9 | CCOC(=O)CCSc1nc2ccc(I)cc2c(=O)n1Cc1ccccc1 | 19.5 µM (inactive) | 15.8 µM (inactive) | 25.5 µM (inactive) | 38.2 µM (inactive) | 2.67 µM (inactive) | 12.4 µM (inactive) | 24 µM (inactive) | 9.91 µM (inactive) | 31.8 µM (inactive) | 28.2 µM (inactive) | 5.22 µM (inactive) | 18 µM | 37.1 µM (inactive) | 21.6 µM (inactive) | 26.9 µM (inactive) | 39.4 µM (inactive) | 13.6 µM (inactive) | 31 µM (inactive) | 25.2 µM (inactive)
10 | CSc1ncnc2c1cnn2CCCCO | > 100 µM (inactive) | > 100 µM (inactive) | > 100 µM (inactive) | > 100 µM (inactive) | > 100 µM (inactive) | > 100 µM (inactive) | > 100 µM (inactive) | > 100 µM (inactive) | > 100 µM (inactive) | > 100 µM (inactive) | > 100 µM (inactive) | > 100 µM | > 100 µM (inactive) | > 100 µM (inactive) | > 100 µM (inactive) | > 100 µM (inactive) | > 100 µM (inactive) | > 100 µM (inactive) | > 100 µM (inactive)
11 | CCCc1c(O)c(=O)c2c(OC)cc(OC)c3c4c(OC)cc(OC)c5c(=O)c(O)c(CCC)c(c1c23)c54 | 1.74 µM (inactive) | 0.181 µM (active) | 1.15 µM (inactive) | 0.351 µM (active) | 0.394 µM (active) | 2.44 µM (inactive) | 0.195 µM (active) | 0.337 µM (active) | 1.76 µM (inactive) | 0.338 µM (active) | 0.192 µM (active) | 0.746 µM | 0.37 µM (active) | 1.63 µM (inactive) | 2.79 µM (inactive) | 1.9 µM (inactive) | 0.681 µM (active) | 0.507 µM (active) | 0.468 µM (active)
12 | N=c1oc2ccc3ccccc3c2cc1C(N)=O | 39.2 µM (inactive) | 35.9 µM (inactive) | > 100 µM (inactive) | 25.1 µM (inactive) | 43.5 µM (inactive) | 48.6 µM (inactive) |  | 21.6 µM (inactive) | 39.8 µM (inactive) | 31.2 µM (inactive) | > 100 µM (inactive) | 58.1 µM | 71 µM (inactive) | 15.3 µM (inactive) | > 100 µM (inactive) |  | 53 µM (inactive) | 19.4 µM (inactive) | 15.6 µM (inactive)
13 | CCCC/C=C/C/C=C/CCCCCCCCC(=O)OCC1CCCN2CCCCC12 (stereo not drawn) | 17.3 µM (inactive) | 28.5 µM (inactive) | 63.2 µM (inactive) | > 100 µM (inactive) | 31 µM (inactive) | 93.3 µM (inactive) | > 100 µM (inactive) |  | > 100 µM (inactive) | 76.9 µM (inactive) | > 100 µM (inactive) | > 100 µM | > 100 µM (inactive) | > 100 µM (inactive) | > 100 µM (inactive) | > 100 µM (inactive) | 31.7 µM (inactive) | > 100 µM (inactive) | > 100 µM (inactive)
14 | O=C1/C(=N\NC(=S)Nc2ccc(Cl)cc2)c2cc([N+](=O)[O-])ccc2N1CN1CCOCC1 | 0.502 µM (active) | 2.85 µM (inactive) | 13.2 µM (inactive) | 7.89 µM (inactive) | 3.52 µM (inactive) | 13.2 µM (inactive) |  | 4.19 µM (inactive) | 4.12 µM (inactive) | 10.1 µM (inactive) |  | 3.36 µM | 10.5 µM (inactive) | 4.81 µM (inactive) | 7.19 µM (inactive) | 12.2 µM (inactive) | 8.47 µM (inactive) | 13.2 µM (inactive) | 7.03 µM (inactive)
15 | C1=N\CCNCC/N=C\c2ccc(cc2)OCc2cccc(n2)COc2ccc/1cc2 | > 100 µM (inactive) | > 100 µM (inactive) | > 100 µM (inactive) | 49 µM (inactive) | > 100 µM (inactive) | > 100 µM (inactive) | > 100 µM (inactive) | 66.7 µM (inactive) | > 100 µM (inactive) |  | > 100 µM (inactive) | 97.1 µM | > 100 µM (inactive) | > 100 µM (inactive) | 98.9 µM (inactive) |  | > 100 µM (inactive) | 70.3 µM (inactive) | 23.5 µM (inactive)
16 | O=S(=O)(c1ccccc1)[C@H]1[C@@H]2O[C@@H]2C[C@@H]1O | > 100 µM (inactive) | > 100 µM (inactive) | > 100 µM (inactive) | > 100 µM (inactive) | > 100 µM (inactive) | > 100 µM (inactive) | > 100 µM (inactive) | > 100 µM (inactive) | > 100 µM (inactive) |  | > 100 µM (inactive) | > 100 µM | > 100 µM (inactive) | > 100 µM (inactive) | > 100 µM (inactive) | > 100 µM (inactive) | > 100 µM (inactive) | > 100 µM (inactive) | > 100 µM (inactive)
